Source: the supplement of paper PMC10331698
± gives the standard deviation of the averaged measurements.

Tests used:
Experiment in all cases: level (log10 ratio to DMSO vehicle control); higher = higher biomarker level / cell amount than vehicle control
Conditions in all cases: in DMSO
[1] = compound: C=C(C)C(=O)OCCC(F)(F)C(F)(F)C(F)(F)C(F)(F)C(F)(C(F)(F)F)C(F)(F)F [(Perfluoro-5-methylhexyl)ethyl 2-methylprop-2-enoate]
Protocol: (§1)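 BioMAP Diversity Plus panel of 12 human primary cell co-culture systems (3C, 4H, LPS, SAg, BT, BF4T, BE3C, CASM3C, HDF3CGF, KF3CT, MyoF, Mphg). Compounds were added 1 h before stimulation and left for 24 h (MyoF 48 h; BT 72 h for soluble read-outs or 6 d for IgG). Biomarkers were read by ELISA, cytotoxicity by SRB, PBMC viability and proliferation by Alamar Blue. Each well value was divided by the mean of 8 DMSO control wells on the same plate and log10 transformed; duplicate blinded samples were tested at 4 concentrations.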

[2] = compound: C=CC(=O)OCC(F)(F)C(F)(F)C(F)(F)C(F)(F)C(F)(F)C(F)(F)C(F)(F)F [1H,1H-Perfluorooctyl acrylate]
Protocol: as §1

Heptafluorobutyramide = compound: NC(=O)C(F)(F)C(F)(F)C(F)(F)F [Heptafluorobutyramide]
Protocol: as §1

Pentafluoropropionamide = compound: NC(=O)C(F)(F)C(F)(F)F [Pentafluoropropionamide]
Protocol: as §1

Perfluorodecanoic acid = compound: O=C(O)C(F)(F)C(F)(F)C(F)(F)C(F)(F)C(F)(F)C(F)(F)C(F)(F)C(F)(F)C(F)(F)F [Perfluorodecanoic acid]
Protocol: as §1

Perfluoroheptanoic acid = compound: O=C(O)C(F)(F)C(F)(F)C(F)(F)C(F)(F)C(F)(F)C(F)(F)F [Perfluoroheptanoic acid]
Protocol: as §1

[3] = compound: O=C(O)C(F)(F)OC(F)(F)C(F)(F)OC(F)(F)F [Perfluoro-3,6-dioxaheptanoic acid]
Protocol: as §1

| Test System | level (log10) ([1]; 6700 nM) | level (log10) ([1]; 20000 nM) | level (log10) ([2]; 6700 nM) | level (log10) ([2]; 20000 nM) | level (log10) ([2]; 60000 nM) | level (log10) (Heptafluorobutyramide; 6700 nM) | level (log10) (Heptafluorobutyramide; 20000 nM) | level (log10) (Heptafluorobutyramide; 60000 nM) | level (log10) (Pentafluoropropionamide; 6700 nM) | level (log10) (Pentafluoropropionamide; 20000 nM) | level (log10) (Pentafluoropropionamide; 60000 nM) | level (log10) (Perfluorodecanoic acid; 6700 nM) | level (log10) (Perfluorodecanoic acid; 20000 nM) | level (log10) (Perfluoroheptanoic acid; 6700 nM) | level (log10) (Perfluoroheptanoic acid; 20000 nM) | level (log10) (Perfluoroheptanoic acid; 60000 nM) | level (log10) ([3]; 6700 nM) | level (log10) ([3]; 20000 nM) | level (log10) ([3]; 60000 nM) |
| --- | --- | --- | --- | --- | --- | --- | --- | --- | --- | --- | --- | --- | --- | --- | --- | --- | --- | --- | --- |
| CASM3C:CXCL9/MIG | 0.0335 ± 0.029 | 0.0445 ± 0.046 | 0.001 ± 0.0028 | -0.0015 ± 0.011 | 0.0005 ± 0.0035 | -0.0035 ± 0.00071 | -0.01 ± 0.0014 | 0.0005 ± 0.011 | 0 ± 0.0014 | -0.0035 ± 0.005 | -0.008 ± 0.0042 | -0.012 ± 0.0028 | -0.0055 ± 0.0064 | 0.006 ± 0.023 | 0.015 ± 0.016 | 0.054 ± 0.051 | 0.028 ± 0.058 | 0.0245 ± 0.083 | 0.0415 ± 0.087 |
| lMphg:IL-1alpha | 0.016 ± 0.018 | 0.0385 ± 0.026 | 0.0115 ± 0.022 | 0.002 ± 0.038 | 0.0155 ± 0.037 | -0.034 ± 0.021 | -0.0015 ± 0.018 | 0.0475 ± 0.053 | -0.0005 ± 0.016 | -0.0055 ± 0.0092 | 0.0355 ± 0.083 | 0.0085 ± 0.0078 | 0.013 ± 0.02 | -0.0275 ± 0.042 | -0.0025 ± 0.0035 | 0.0145 ± 0.012 | -0.0025 ± 0.046 | 0.007 ± 0.035 | -0.005 ± 0.027 |
| KF3CT:TIMP-2 | -0.016 ± 0.03 | -0.041 ± 0.052 | -0.0075 ± 0.00071 | -0.0155 ± 0.018 | -0.0075 ± 0.032 | -0.001 ± 0.011 | 0.0075 ± 0.0035 | 0.008 ± 0.0042 | 0.0005 ± 0.026 | 0.004 ± 0.027 | 0.0305 ± 0.013 | 0.003 ± 0.03 | -0.051 ± 0.034 | 0.006 ± 0.021 | 0.0085 ± 0.025 | 0.031 ± 0.017 | 0.024 ± 0.069 | -0.0365 ± 0.13 | -0.01 ± 0.12 |
| BE3C:MMP-1 | 0.026 ± 0.0042 | 0.014 ± 0.0057 | -0.018 ± 0.016 | -0.0215 ± 0.0035 | 0.006 ± 0.0014 | 0.007 ± 0.0057 | 0.0045 ± 0.018 | 0.0195 ± 0.073 | 0.0275 ± 0.015 | 0.0185 ± 0.028 | 0.0665 ± 0.037 | 0.211 ± 0.041 | -0.4875 ± 0.0035 | 0.0345 ± 0.015 | 0.0405 ± 0.043 | 0.0865 ± 0.067 | -0.042 ± 0.048 | -0.0015 ± 0.057 | 0.0145 ± 0.037 |
| MyoF:PAI-I | -0.0025 ± 0.011 | -0.019 ± 0.0085 | 0.005 ± 0.016 | -0.0005 ± 0.018 | -0.0065 ± 0.0078 | 0.0035 ± 0.00071 | 0.01 ± 0.0014 | -0.0055 ± 0.016 | 0.0075 ± 0.0021 | -0.002 ± 0.0071 | -0.004 ± 0.0057 | 0.0035 ± 0.012 | 0.0205 ± 0.025 | 0 ± 0.016 | -0.0215 ± 0.023 | 0.0025 ± 0.018 | -0.019 ± 0.038 | -0.0245 ± 0.03 | -0.0275 ± 0.025 |
| MyoF:TIMP-1 | -0.031 ± 0.023 | -0.024 ± 0.0057 | 0.0075 ± 0.012 | 0.037 ± 0.0014 | 0.0405 ± 0.005 | -0.0285 ± 0.054 | -0.0325 ± 0.05 | -0.0435 ± 0.067 | -0.053 ± 0.027 | -0.048 ± 0.034 | -0.0225 ± 0.064 | -0.0345 ± 0.035 | -0.059 ± 0.038 | -0.011 ± 0.0042 | 0.0225 ± 0.0021 | 0.0515 ± 0.0064 | -0.0305 ± 0.097 | -0.006 ± 0.079 | -0.001 ± 0.044 |
| BE3C:Keratin 8/18 | -0.0185 ± 0.0092 | 0.0005 ± 0.0064 | -0.011 ± 0.023 | -0.0145 ± 0.029 | -0.0045 ± 0.022 | -0.007 ± 0.0071 | -0.028 ± 0.0071 | -0.0265 ± 0.0078 | -0.0185 ± 0.0021 | -0.0185 ± 0.005 | -0.0185 ± 0.018 | 0.0035 ± 0.029 | -0.337 ± 0.0035 | -0.0135 ± 0.005 | -0.0135 ± 0.0078 | -0.0025 ± 0.012 | -0.033 ± 0.041 | -0.0085 ± 0.022 | -0.03 ± 0.017 |
| CASM3C:CXCL8/IL-8 | 0.005 ± 0.037 | 0.019 ± 0.028 | 0.004 ± 0.0099 | -0.006 ± 0.011 | 0.016 ± 0.0028 | -0.005 ± 0.0057 | -0.007 ± 0.0099 | 0.0075 ± 0.015 | -0.007 ± 0.014 | -0.017 ± 0.0071 | -0.0005 ± 0.012 | -0.0035 ± 0.0064 | -0.006 ± 0.0028 | -0.0085 ± 0.0064 | -0.002 ± 0.0042 | 0.046 ± 0.018 | 0.011 ± 0.037 | 0.018 ± 0.052 | 0.0295 ± 0.039 |
| MyoF:Collagen III | -0.0135 ± 0.052 | -0.0455 ± 0.04 | 0.0005 ± 0.013 | -0.007 ± 0.024 | -0.0055 ± 0.021 | -0.0025 ± 0.0092 | 0.0025 ± 0.011 | -0.004 ± 0.02 | 0.002 ± 0.031 | -0.005 ± 0.0014 | -0.007 ± 0.0057 | -0.028 ± 0.03 | -0.36 ± 0.066 | -0.013 ± 0.018 | -0.011 ± 0.018 | -0.0055 ± 0.0078 | -0.025 ± 0.0014 | -0.001 ± 0.017 | 0.027 ± 0.038 |
| lMphg:CD106/VCAM-1 | -0.0315 ± 0.011 | -0.014 ± 0.0057 | -0.0115 ± 0.022 | -0.001 ± 0.018 | -0.0145 ± 0.037 | 0.011 ± 0.014 | 0.004 ± 0.0071 | 0.013 ± 0.0028 | 0.0015 ± 0.033 | -0.009 ± 0.021 | -0.0045 ± 0.043 | 0.004 ± 0.0014 | -0.0145 ± 0.053 | -0.0115 ± 0.005 | 0.001 ± 0.0014 | -0.0095 ± 0.032 | -0.004 ± 0.02 | 0.007 ± 0.014 | -0.004 ± 0.04 |
| MyoF:Collagen IV | 0.025 ± 0.02 | 0.058 ± 0.1 | 0.034 ± 0.054 | 0.03 ± 0.035 | 0.062 ± 0.071 | -0.0185 ± 0.019 | -0.01 ± 0.0028 | 0.0275 ± 0.023 | -0.0295 ± 0.03 | -0.0275 ± 0.025 | -0.007 ± 0.051 | 0.334 ± 0.037 | 0.38 ± 0.086 | -0.0175 ± 0.022 | -0.014 ± 0.013 | 0.0305 ± 0.07 | -0.011 ± 0.0085 | 0.0045 ± 0.013 | 0.0015 ± 0.021 |
| lMphg:CD62E/E-Selectin | -0.0135 ± 0.011 | -0.01 ± 0.017 | -0.0075 ± 0.023 | 0.004 ± 0.017 | -0.004 ± 0.021 | 0.035 ± 0.051 | -0.009 ± 0.064 | -0.0285 ± 0.054 | -0.018 ± 0.0014 | 0.016 ± 0.014 | -0.013 ± 0.0071 | -0.026 ± 0.0028 | -0.0135 ± 0.011 | -0.026 ± 0.0028 | 0 ± 0.024 | 0.025 ± 0.018 | 0.0105 ± 0.0021 | 0.003 ± 0.017 | 0.061 |
| MyoF:Decorin | -0.006 ± 0.037 | 0.008 ± 0.052 | -0.0145 ± 0.011 | -0.005 | 0.003 ± 0.018 | -0.029 ± 0.057 | 0.02 ± 0.081 | 0.0065 ± 0.049 | 0.01 ± 0.017 | 0.0135 ± 0.00071 | 0.0325 ± 0.028 | 0.0055 ± 0.0064 | -0.071 ± 0.018 | -0.0015 ± 0.013 | 0.036 ± 0.0042 | 0.0505 ± 0.035 | -0.0075 ± 0.03 | -0.013 ± 0.017 | 0.012 ± 0.04 |
| BE3C:uPA | -0.001 ± 0.016 | -0.0005 ± 0.016 | -0.003 ± 0.0099 | 0.005 ± 0.0099 | 0.0055 ± 0.00071 | -0.011 ± 0.02 | -0.017 ± 0.024 | -0.0145 ± 0.019 | -0.0305 ± 0.028 | -0.0265 ± 0.015 | -0.011 ± 0.014 | -0.0025 ± 0.011 | -0.38 ± 0.0099 | -0.002 ± 0.0042 | 0.0055 ± 0.0035 | 0.0255 ± 0.015 | -0.0495 ± 0.079 | -0.028 ± 0.069 | -0.011 ± 0.041 |
| MyoF:SRB | 0.001 ± 0.014 | -0.0035 ± 0.0078 | -0.003 ± 0.011 | -0.012 ± 0.018 | -0.0335 ± 0.005 | -0.011 ± 0.017 | -0.0035 ± 0.0078 | -0.0005 ± 0.005 | 0.0045 ± 0.0021 | -0.007 ± 0.0057 | -0.0015 ± 0.0035 | -0.033 ± 0.0014 | -0.08 ± 0.0099 | -0.0005 ± 0.00071 | 0 ± 0.0085 | -0.003 ± 0.021 | -0.0055 ± 0.0035 | -0.0015 ± 0.00071 | 0.004 ± 0.0085 |
